Assays:
[1] = test system: UV4 cells; assay: Growth inhibition, UV4 cells with lethally-irradiated AA8 feeder cells, aerobic or hypoxic 18 h (Table 3); type: cell-based; conditions: aerobic IC50 /hypoxic IC50, UV4, 18 h
Protocol: (§1) IC50 Growth inhibition studies were performed as described in detail elsewhere (W. R. Wilson, R. F. Anderson and W. A. Denny. J. Med. Chem., 1989, 32, 23; G. J. Finlay, B. C. Baguley and W. R. Wilson. Anal. Biochem., 1984, 139, 172.), using 200 viable AA8 or 300 viable UV4 cells plus 5000 lethally-irradiated AA8 feeder cells per well in 96-well tissue culture dishes. AA8 and UV4 cells were maintained in logarithmic-phase growth in […] tissue culture flasks with subculture twice weekly by trypsinization. The growth medium was antibiotic-free Alpha MEM with 10% v/v heat-inactivated (56° C., 40 min) fetal calf serum. Doubling times were approximately 14h for AA8 and […] cells.
(§2) air/N2 ratio Ratio of IC50 values after exposure as detailed above under either aerobic (air) or hypoxic (N2) conditions (=aerobic IC50 /hypoxic IC50).
(§3) HF Ratio of IC50 values for a compound after exposure as detailed above against AA8 and UV4 cell lines (=IC50 (AA8)/IC50 (UV4)).

[2] = test system: AA8 cells; assay: Growth inhibition, AA8 cells with lethally-irradiated AA8 feeder cells, aerobic or hypoxic 18 h (Table 3); type: cell-based, hamster; conditions: for IC50: AA8, aerobic, 18 h exposure, read-out: IC50 (air) AA8; for HF(air): IC50 (AA8)/IC50 (UV4), aerobic, 1080 min; for IC50 (air)/IC50 (N2) AA8: aerobic IC50 /hypoxic IC50, AA8, 18 h
Protocol: as §1, §2, §3

[3] = Square wave voltammetry, peak potential of cathodic wave; type: physicochemical; conditions: vs NHE, platinum disc electrode, 0.15 M (n-Bu4 N)ClO4 in CH2 Cl2, ferrocene internal reference
Source text: E1/2 Peak potentials (vs NHE) of cathodic wave, determined by square wave voltammetry at a platinum disc electrode in 0.15 M (n-Bu4 N)ClO4 in CH2 Cl2 with ferrocene as an internal reference.

[4] = test system: SCC7 cells; assay: Growth inhibition, SCC7 cells, aerobic 18 h (Table 2); type: cell-based; conditions: 18 h exposure, 1 determination
Protocol: (§4) ([Co(Macac)2 (DCE)]ClO4) was prepared as described in Example E. Growth inhibition studies were performed as described in detail by W. R. Wilson, R. F. Anderson and W. A. Denny in J. Med. Chem., 1989 32, 23 and by G. J. Finlay, B. C. Baguley and W. R. Wilson in Anal. Biochem., 1984, 139, 172, herein specifically incorporated by reference. 200 AA8 cells in 96 well tissue culture dishes, 300 UV4 cells in 96 well tissue culture dishes, 300 UV5 cells in 96 well tissue culture dishes, 50 EMT6 cells in 96 well tissue culture dishes, 200 SCC7 cells in 96 well tissue culture dishes, 1500 FME cells in 96 well tissue culture dishes and 500 HCT-8 cells in 96 well tissue culture dishes were prepared. The cells were maintained in logarithmic-phase growth in 25 cm tissue culture flasks with subculture twice weekly by trypsinization. The growth medium was antibiotic-free Alpha MEM with 10% v/v heat-inactivated (56° C., 40 min.) fetal calf serum. Doubling times were approximately 14 hours for AAS, 16 hours for UV4, 16 hours for UV5, 10 hours for EMT6, 14 hours for SCC7, 24 hours for FME and 20 hours for HCT-8 cells. Cultures were tested for mycoplasma contamination frequently, using a cytochemical staining method (I. R. Chen, Exp. Cell Res., 1977, 104, 255). […]

[5] = test system: AA8 cells; assay: Growth inhibition, AA8 cells, aerobic 18 h (Table 2); type: cell-based, hamster; conditions: 18 h exposure, 5 determinations
Protocol: as §4

[6] = test system: HCT-8 cells; assay: Growth inhibition, HCT-8 cells, aerobic 18 h (Table 2); type: cell-based; conditions: HCT-8 (human colon carcinoma), 18 h exposure, 1 determination
Protocol: as §4

[7] = test system: FME cells; assay: Growth inhibition, FME cells, aerobic 18 h (Table 2); type: cell-based, human
Protocol: as §4

[8] = test system: UV5 cells; assay: Growth inhibition, UV5 cells, aerobic 18 h (Table 2); type: cell-based; conditions: 18 h exposure, 1 determination
Protocol: as §4

[9] = test system: EMT6 cells; assay: Growth inhibition, EMT6 cells, aerobic 18 h (Table 2); type: cell-based; conditions: 18 h exposure, 6 determinations
Protocol: as §4

[10] = test system: UV4 cells; assay: Growth inhibition, UV4 cells, aerobic 18 h (Table 2); type: cell-based; conditions: 18 h exposure, 5 determinations
Protocol: as §4

Substance	IC50 (air)/IC50 (N2) UV4 [1]	IC50 [2] [µM]	HF(air) [2]	IC50 (air)/IC50 (N2) AA8 [2]	E1/2 [3] [mV]	IC50 [4] [nM]	IC50 [5] [µM]	IC50 [6] [µM]	IC50 ([7]; FME (human breast carcinoma), aerobic, 18 h exposure, 6 determinations) [nM]	potency in human lines as compared to AA8 ([7]; FME and HCT-8 versus AA8, aerobic)	IC50 [8] [nM]	IC50 [9] [nM]	IC50 [10] [nM]
[Co(Clacac)2 (BCE)]Cl [Compound 5]	0.92 ± 0.21	26.1 ± 2	12.8 ± 3.5	0.54 ± 0.12	-132	–	–	–	–	–	–	–	–
[Co(Etacac)2 (BCE)]ClO4 [Compound 3]	1.77 ± 0.75	139 ± 18.3	4.8 ± 1.4	0.79 ± 0.24	-460	–	–	–	–	–	–	–	–
[Co(Etacac)2 (DCE)]Cl.2H2 O [Compound 8]	2.14 ± 0.56	1.56 ± 0.08	21.2 ± 4.0	1.28 ± 0.23	-352	–	–	–	–	–	–	–	–
[Co(Macac)2 (BCE)]ClO4 [Compound 2]	–	992	3.25	< 1	-420	–	–	–	–	–	–	–	–
[Co(Macac)2 (DCE)]ClO4 [Compound 7]	2.03 ± 0.47	2.91 ± 0.47	50.8 ± 3.7	2.81 ± 0.16	-307	310	4.56 ± 0.62	4.44	1300 ± 130	higher potency (lower IC50) in both of the human lines as compared to AA8	2640	1610 ± 210	100 ± 20
[Co(Pracac)2 (BCE)]ClO4 [Compound 4]	1.20 ± 0.50	18.5 ± 3.3	3.5 ± 0.7	0.85 ± 0.35	-500	–	–	–	–	–	–	–	–
[Co(acac)2 (BCE)]ClO4 [Compound 1]	3.76 ± 1.46	893 ± 161	14.0 ± 4.3	0.42 ± 0.06	-308	–	–	–	–	–	–	–	–
[Co(acac)2 (DCE)]ClO4 [Compound 6]	0.85 ± 0.03	1.75 ± 0.1	48.2 ± 9.0	1.33 ± 0.13	-232	–	–	–	–	–	–	–	–

— patent US5348977A, “Cobalt complexes as anti-cancer agents” (Warner Lambert Company, priority 1991, dated 1994)
